Test results published in patent US12662487B2, “Imidazo[1,2-b][1,2,4]triazol derivatives for use in therapy” (SANOFI, priority 2021, dated 2026).

What was measured:
[1] = target: T1, Nurr1 (Mus musculus, UniProt Q06219); experiment: Activity on neuroblastoma cell lines - Nurr1 modulation (NBRE8x luciferase reporter in N2A cells); type: cell-based; settings: N2A cells stably transfected with NBRE8x luciferase reporter; 24 hours with compound
T1 construct: N2A cells obtained from ATCC were stably transfected with NBRE8x (50-AAGGTCA-30) in tandem coupled with luciferase reporter gene; host or cells: N2A neuroblastoma cells
T1 sequence (Q06219 whole entry): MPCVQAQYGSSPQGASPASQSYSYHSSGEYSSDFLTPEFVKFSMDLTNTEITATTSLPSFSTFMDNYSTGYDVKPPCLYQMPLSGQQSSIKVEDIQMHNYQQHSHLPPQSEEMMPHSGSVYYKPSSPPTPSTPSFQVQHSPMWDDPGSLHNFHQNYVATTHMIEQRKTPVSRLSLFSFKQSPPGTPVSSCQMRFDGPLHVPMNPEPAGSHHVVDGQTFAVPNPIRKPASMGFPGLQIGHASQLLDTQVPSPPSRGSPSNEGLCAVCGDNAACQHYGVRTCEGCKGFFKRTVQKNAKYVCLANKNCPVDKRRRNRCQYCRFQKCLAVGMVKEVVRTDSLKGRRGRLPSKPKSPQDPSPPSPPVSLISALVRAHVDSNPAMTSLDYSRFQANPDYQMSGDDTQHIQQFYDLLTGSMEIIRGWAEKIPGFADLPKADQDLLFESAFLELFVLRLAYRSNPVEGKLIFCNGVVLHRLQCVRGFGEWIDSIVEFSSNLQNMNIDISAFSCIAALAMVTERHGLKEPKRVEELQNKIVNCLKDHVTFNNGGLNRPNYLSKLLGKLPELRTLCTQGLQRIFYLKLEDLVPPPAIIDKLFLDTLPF
Description: N2A cells obtained from ATCC were stably transfected with NBRE8x (50-AAGGTCA-30) in tandem coupled with luciferase reporter gene. Each NBRE sequence was separated with 5 nucleotides. N2A were grown in 75 cm^2 flask in DMEM containing 10% calf serum, 4.5 g/L glucose and 0.4 mg/ml geneticin. After one week in culture cells were harvested by trypsinization (0.25%, 30 minutes) then plated onto 96 well dishes at the density of 60 000 cell per well in 75 μl of DMEM without phenol red containing 4.5 g/l glucose, 10% lipid free serum from Hyclone. After 24 hours compounds were added (25 μl/well) at different concentration for further 24 hours. Measurement is performed by adding 100 μl of Steadylite per well for 30 minutes and plates were read using microplate […] reader.

[2] = target: T2, Nur77 (Homo sapiens, UniProt P22736); experiment: Activity on HEK - Nur77 modulation (Gal4-DBD luciferase reporter in stable HEK293 cells); type: cell-based; settings: HEK293 cells expressing Gal4-DBD-hNur77 and Pfr-Luc; 24 hours with compound; luminescence
T2 construct: the Pfr-Luc (Gal4-responsive luciferase) reporter sits in the same cells
T2 sequence (P22736 360-598 limits assumed): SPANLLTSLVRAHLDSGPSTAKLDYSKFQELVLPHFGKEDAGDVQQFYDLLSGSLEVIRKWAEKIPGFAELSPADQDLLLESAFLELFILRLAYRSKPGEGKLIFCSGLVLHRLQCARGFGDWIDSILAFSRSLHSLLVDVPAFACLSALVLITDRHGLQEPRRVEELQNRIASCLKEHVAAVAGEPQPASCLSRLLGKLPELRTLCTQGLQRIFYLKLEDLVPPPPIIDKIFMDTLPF
Description: Stable HEK293 cells expressing Gal4-DBD-FL-NOT, -hNur77, -hNOR1 and Pfr-Luc were obtained by limit dilution. HEK cells were grown in 75 cm^2 flask in DMEM high glucose 30-2002™ containing 10% calf serum, hygromycin at a content of 250 μg/ml, doxycycline at a content of 2 μg/ml (to induce expression) and 0.4 mg/ml of penicillin. After one week in culture, cells were harvested by trypsinization then plated onto 96 well dishes at the density of 20 000 cell per well in 75 μl of culture medium. After 24 hours compounds were added (25 μl per well) at different concentration for further 24 hours. The medium was removed and measurement was performed by adding 50 μl of Steadyglo (Promega, E2510) with 50 μl PBS per well for 15 minutes and plates were read using microplate luminescent reader.

Question: Which EC50 [1] does the source give for `Cn1c(-c2ccc3cc[nH]c3c2)cn2nc(-c3ccc(F)cc3)nc12` [compound (1), 6-[2-(4-fluorophenyl)-4-methyl-imidazo[1,2-b][1,2,4]triazol-5-yl]-1H-indole] here?
Answer: The EC50 was 700 pM.

Question: What about the IC50 [2] of the same compound?
Answer: The IC50 was 30 pM.

Question: How did the EC50 [1] turn out when `Cn1c(-c2cccc(F)c2)cn2nc(-c3ccc(F)cc3)nc12` [compound (2), 5-(3-fluorophenyl)-2-(4-fluorophenyl)-4-methyl-4H-imidazo[1,2-b][1,2,4]triazole] was run?
Answer: The EC50 was 63000 pM.

Question: `Cn1c(-c2ccccc2)cn2nc(-c3cccc(CO)c3)nc12` [compound (3), [3-(4-methyl-5-phenyl-4H-imidazo[1,2-b][1,2,4]triazol-2-yl)phenyl]methanol] was tested. Which EC50 [1] did it give?
Answer: The EC50 was 400 pM.

Question: What about the IC50 [2] of the same compound?
Answer: Its IC50 is 900 pM.
